The values that follow come from article PMC5335257, “Promoting in vivo remyelination with small molecules: a neuroreparative pharmacological treatment for Multiple Sclerosis” (Scientific Reports, 2017).

“Also recorded” adds a separate entry of the source.

As usually defined, the IC50 is the concentration that inhibits the measured activity by half.

Test [1] concerns corpus callosum of cuprizone-fed mice. Kind of test: In vivo remyelination, cuprizone demyelination model. On the set-up: species or system C57/BL6 male mice. The procedure: The protocol used was modified from previously described. Demyelination was induced by feeding 8 weeks old male C57/BL6 mice ad libitum with 0.2% cuprizone (bis-cyclo-hexanone-oxaldihydrazone; Sigma) mixed with milled chow (Altromin) for 5 weeks. A control group was maintained in the same conditions but fed with the chow without cuprizone. After cuprizone withdrawal, mice were intraperitoneally injected on 3 alternate days with PDE7-GSK3 inhibitors (VP1.15 or VP3.15; 10 mg/kg of animal) using a solution of the compound (100 mg/mL in DMSO) diluted 1:50 in a solution of 5% Tocrisolve (Tocris, UK) in distilledwater[36] or with the vehicle. 1 week after the cuprizone withdrawal, mice were transcardially perfused with 4% PFA in phosphate buffer. Another group was maintained for 3 weeks after cuprizone withdrawal and injected with 3 doses per week on alternate days of the PDE7-GSK3 inhibitors (10 mg/kg of animal per dose see above) or the vehicle and then perfused. The corpus callosum of three animals per condition was studied. For histological examination, forebrain coronal sections (20 μm) were taken of the rostral part of the corpus callosum as previously described[80][81] and stained with eriochrome cyanine using a standard protocol in order to study the myelin. Briefly, cryosections on glass slides were immersed in acetone for 5 minutes, dried and submerged in eriochrome cyanine solution (Sigma) for 1 hour and then differentiated in 5% (w/v) iron alum for 5–10 minutes, followed by a second differentiation with borax-ferricyanide solution for 5 minutes. The stained area was measured with the Image J software and related to the total analyzed area. For the immunofluorescence analysis, tissue sections were stained with anti-MBP (1:200; Serotec; Cat#MCA4095) for myelin, anti-PDGFRα (1:200; Santa Cruz; Cat#sc338) for OPCs, anti-CC1 (1:100; Calbiochem, Cat#OP80) and anti-GFAP (Glial fibrillary acidic protein; 1:200; Dako; Cat#Z0334) for astrocytes, and tomato lectin (TL; 1:67; Sigma; Cat#L0651) for microglia. Optical images were acquired using an Olympus BX61 microscope and fluorescence images were taken using a DFC480 FX digital camera (Leica) coupled to a Leica DM5000 B microscope or a confocal SP5 resonant scanner (Leica). Myelin staining (with MBP and eriochrome cyanine) and CC1 staining were quantified by taking pictures of non-overlapping fields of coronal sections of the corpus callosum, between the lateral ventricles (2 fields per section, 5–6 sections of each mice; using a x20 objective) and by measuring the fluorescence intensity or blue staining using the Image J software. The number of OPCs per field was also counted in pictures of the midline of the corpus callosum using the x40 objective (4–6 sections per mice). Astrocytes and microglia were evaluated in pictures of the same area of the corpus callosum using the x40 objective and quantified by measuring the area occupied by GFAP or TL staining respectively using the Image J software (4–6 sections per mice). Data were expressed as the mean ± SEM.

Test [2] concerns spinal cord injury models. On the set-up: method as in PMID 21297958, PMID 23077723. The note with it: spinal cord injury models (as well as EAE); cited from earlier work.
The subject of the next test is PDE7. On the set-up: method as in PMID 24437940. The note with it: read-out: PDE7 inhibition IC50; cited from earlier work.

For `c1ccc(-c2n/c(=N/CCN3CCOCC3)sn2-c2ccccc2)cc1` [VP3.15], the “myelin staining (eriochrome cyanine) in corpus callosum vs vehicle” value in test [1] (10 mg/kg i.p. on 3 alternate days, 1 week after cuprizone withdrawal) was “significantly higher myelin staining; also recorded: almost complete remyelination”. In addition, the “myelin quantification by MBP immunodetection” value in test [1] (10 mg/kg i.p., after cuprizone withdrawal) is “confirmed these results, with similar effects”. For the same molecule, the “microglial activation (TL staining) vs vehicle” value in test [1] (1 week after cuprizone withdrawal) is “Neither VP1.15 nor VP3.15 induced changes”. Besides, in test [1] (one week after cuprizone withdrawal), the “number of OPCs (PDGFRα+ cells) vs vehicle” value is “significantly lower number of OPCs”. Besides, the immunomodulatory effect entry in test [2] is on record as “immunomodulatory effect”. In addition, the IC50 in the test on PDE7 is 1.59 µM.
